According to ChEMBL document CHEMBL2034929, “A specific molecular beacon probe for the detection of human prostate cancer cells” (Bioorg Med Chem Lett, 2012):

Key:
LNCaP [1] = experiment: Drug metabolism in human LNCAP cell lysates assessed as formation of N-[4-[(1E)-2-[4-(dimethylamino)phenyl]diazenyl]benzoyl]-glycine; type: ADME, cell-based, Lysate
[2] = Drug metabolism in human LNCAP cells at 10 uM after 26 hrs by UV-VIS spectrophotometry; type: ADME, cell-based; settings: read-out: Drug metabolism
LNCaP [3] = experiment: Drug metabolism in human LNCAP cell lysates at 10 uM after 26 hrs by fluorescence analysis relative to human RWPE1 cells; type: ADME, cell-based, Lysate
LNCaP [4] = experiment: Drug metabolism in human LNCAP cells at 10 uM after 30 mins by fluorescence microscopy; type: ADME, cell-based; settings: 0.5 h
LNCaP [5] = experiment: Drug metabolism in human LNCAP cell lysates at 10 uM after 26 hrs by UV-VIS spectrophotometry relative to human RWPE1 cells; type: ADME, cell-based, Lysate
[6] = Drug metabolism in 0.10 M tris-maleate buffer at pH 8 assessed as formation of 2-[3-[[(3'6'-Dihydroxy-3-oxospiro[isobenzofuran-1(3H), 9'-[9H]xanthen]-6-yl)carbonyl]amino]-1-propyn-1-yl]-benzenemethanol by mass spectrometry in presence of porcine liver carboxylesterase; type: physicochemical; settings: pig
LNCaP [7] = experiment: Drug metabolism in human LNCAP cell lysates at 10 uM after 10 days by fluorescence analysis; type: ADME, cell-based, Lysate; settings: 240 h
LNCaP [8] = experiment: Drug metabolism in human LNCAP cell lysates at 10 uM after 26 hrs by fluorescence analysis relative to untreated human RWPE1 cells; type: ADME, cell-based, Lysate
[9] = Drug metabolism in 0.10 M tris-maleate buffer at pH 8 assessed as formation of N-[4-[(1E)-2-[4-(dimethylamino)phenyl]diazenyl]benzoyl]-glycine by mass spectrometry in presence of porcine liver carboxylesterase; type: physicochemical; settings: pig
[10] = Drug metabolism in 0.10 M tris-maleate buffer at pH 8 assessed as increase in fluorescence at 10 uM after 5 hrs by UV-VIS spectrophotometry in presence of porcine liver carboxylesterase relative to control; type: physicochemical; settings: pig, pH 8, 5 h
[11] = Drug metabolism in human RWPE1 cells at 10 uM after 30 mins by fluorescence microscopy; type: ADME, cell-based; settings: rwpe-1, 0.5 h
LNCaP [12] = experiment: Drug metabolism in human LNCAP cell lysates assessed as formation of 2-[3-[[(3'6'-Dihydroxy-3-oxospiro[isobenzofuran-1(3H), 9'-[9H]xanthen]-6-yl)carbonyl]amino]-1-propyn-1-yl]-benzenemethanol; type: ADME, cell-based, Lysate
[13] = Drug metabolism in human RWPE1 cells at 10 uM after 26 hrs by UV-VIS spectrophotometry; type: ADME, cell-based, RWPE-1; settings: read-out: Drug metabolism

Drug metabolism (LNCaP [1]): Active
metabolised at 26 h, 10 µM [2]: 29%
fold change (FC) (LNCaP [3]): 3.8
Drug metabolism (LNCaP [4]): Active
fold change (FC) (LNCaP [5]): 2.9
Drug metabolism [6]: Active
Drug metabolism (LNCaP [7]): Active
fold change (FC) (LNCaP [8]): 30.8
Drug metabolism [9]: Active
fold change (FC) [10]: 23
Drug metabolism [11]: Not Active
Drug metabolism (LNCaP [12]): Active
metabolised at 26 h, 10 µM [13]: 10%
SMILES: CN(C)c1ccc(/N=N/c2ccc(C(=O)NCC(=O)OCc3ccccc3C#CCNC(=O)c3ccc4c(c3)C3(OC4=O)c4ccc(O)cc4Oc4cc(O)ccc43)cc2)cc1
